Test results published in patent US20030092126A1, “Fragments of leptin (ob protein)” (SmithKline Beecham p.l.c., priority 1996, published 2003).

B1: m-Leptin: murine leptin (protein, UniProt P41160 22-167, looked up)
Leptin: VPIQKVQDDTKTLIKTIVTRINDISHTQSVSAKQRVTGLDFIPGLHPILSLSKMDQTLAVYQQVLTSLPSQNVLQIANDLENLRDLLHLLAFSKSCSLPQTSGLQKPESLDGVLEASLYSTEVVALSRLQGSLQDILQQLDVSPEC

System: SD rats
Experiment: Effect of leptin fragments given intracerebroventricularly on food intake and body weight in SD rats
Assay type: in vivo
Settings: single icv injection, measured 24 h later, n = 8, * P < 0.05
Procedure: Effect of Leptin Fragments on Food Intake in SD Rats
Rats are pre-treated with Synulox (0.1 ml/100 g) approx 1 hour before anaesthesia, and then anaesthetised with Domitor (0.04 ml/100 g i.m.) and sublimase (0.9 ml/100 g i.p.) Each rat has a cannula implanted stereotaxically into the lateral brain ventricle under sterile conditions. Anaesthesia is then reversed using Antisedan and Nubain (50% v/v :50% v/v 0.02 m1/100 g) I.P. After surgery each rat receives 0.05 ml Zenecarp.
Experiment 1: Following surgery the body weight of each animal was monitored daily throughout the procedure.
In order to verify that the cannula was in the lateral ventricle, Angiotensin II (100 ng/5 μl ) was injected icv and water intake was monitored for 5 min after injection.
24 hour food intake was measured on day 5 and 6 after surgery. On day 6 the animals were divided according to their body weight into 3 groups (a,b and c, 8 rats per group) and then fasted overnight. On the day of experiment (day 7) rats were injected icv as follows::
group a-vehicle (PBS, phosphate buffer solution, 5 μl/rat);
group b-human leptin (11.5 μg/5 μl); and
group c-leptin tryptic digest (30 μg/5 μl).
A known quantity of food in excess of the daily requirement was supplied to the rats immediately after the icv injection procedure was completed. Food intake and body weight were then measured 24h later.
Experiment 2: A separate group of animals was prepared exactly as described above but on the day of experiment after overnight fast, groups of rats were injected as follows:
group a-vehicle (PBS 5 μl /rat);
group b-human leptin ([…]);
group c-murine leptin (10 μg/5 μl);
group d-ob 57-74, sequence VTGLDFIPGLHPILTLSK (3.33 μg/5 μl);
Again a pre-weight quantity of food, in excess of the daily requirement, was re-given following the injection; change in body weight and the quantity of food consumed were recorded 24h later.

[1] = Experiment 2, Table 2, overnight fast, h-leptin 8.75 μg/rat, m-leptin 10 μg/rat, fragment 57-74 3.33 μg/rat
[2] = Experiment 1, Table 1, overnight fast, h-leptin 11.5 μg/rat, tryptic digest 30 μg/rat

Molecule	24 h food intake [1] [g]	Bwt Change [1]	24 h food intake [2]	Bwt Change [2]
VTGLDFIPGLHPILTLSK [Leptin fragment 57-74, fragment of human ob protein, amino acid residues 57 to 74]	33.6 ± 0.9	26.8 ± 1.2* g/24 h		
h-Leptin: human leptin (human ob protein)	33.7 ± 1.6	24.5 ± 3.7 g/24 h	30.62 ± 1.5* g	22.88 ± 2.05* g/24 h
B1	31.3 ± 1.7	23.7 ± 2.18* g/24 h		
